We go through 20 compounds from ChEMBL document CHEMBL3862027, “Synthesis and antimalarial activity of N-benzylated (N-arylcarbamoyl)alkylphosphonic acid derivatives” (Bioorg Med Chem, 2016).

The subject of data set [1] is Plasmodium falciparum. The experiment in a line: Inhibition of Plasmodium falciparum DXR at 20 uM using DOXP as substrate preincubated for 5 mins followed by substrate addition measured for 10 mins in presence of NADPH by spectrophotometric analysis.
Data set [2] has as its system Plasmodium falciparum. The experiment in a line: Antimalarial activity against Plasmodium falciparum 3D7 infected in human erythrocytes assessed as cell viability at 20 uM after 48 hrs by lactate dehydrogenase assay. It counts as functional.
Data set [3] can be described thus: Cytotoxicity against human HeLa cells assessed as cell viability at 20 uM after 24 hrs by resazurin based fluorescence assay relative to control. It counts as toxicity. The settings on record: read-out: Activity.
Data set [4] deals with Plasmodium falciparum. The experiment in a line: Antimalarial activity against Plasmodium falciparum 3D7 infected in human erythrocytes after 48 hrs by lactate dehydrogenase assay. It counts as functional, cell-based. The settings on record: 3D7, 48 h.

A word on the inhibition: it is the change of the read-out against control, counted positive when it falls. As for `O=C(CCP(=O)(O)O)N(Cc1ccccc1)c1cccc(O)c1`, in data set [1], the inhibition is 0%.

In the case of `CCOP(=O)(CCC(=O)N(Cc1ccccc1)c1cccc(CO)c1)OCC`, in data set [2], the Activity came to 55.44%. In data set [3], the viability at 24 h, 20 µM amounted to 110%.

`C#CCNC(=O)CCP(=O)(O)O`: the inhibition in data set [1] was found to be 6.7%.

As for `CCOP(=O)(CC(=O)Nc1cccc(Br)c1)OCC`, the Activity in data set [2] is 50.91%. Further, the viability at 24 h, 20 µM in data set [3] came out at 102%.

A word on the IC50: it is the point on the concentration scale where inhibition reaches its midpoint. Consider `CCOP(=O)(CC(=O)Nc1cccc(CO)c1)OCC`, for which, in data set [2], the Activity was -7.26%. Moreover, the viability at 24 h, 20 µM in data set [3] stood at 123%. In data set [4], this compound yielded an IC50 of 10.1 µM.

Turning to `CCOP(=O)(CC(=O)Nc1cccc([N+](=O)[O-])c1)OCC`, in data set [2], the Activity is listed as 64.13%. Moreover, the viability at 24 h, 20 µM in data set [3] came out at 83.1%.

Take `C#CCNC(=O)CCP(=O)(OCC)OCC`: the Activity in data set [2] is on record as -4.04%. In data set [3], the viability at 24 h, 20 µM was 92%. The same compound showed an IC50 in data set [4] of 20.1 µM.

`O=C(CCP(=O)(O)O)N(Cc1ccccc1)c1ccccn1`: the inhibition in data set [1] is 0%.

With `CCOP(=O)(CCC(=O)N(Cc1ccccc1)c1cccc([N+](=O)[O-])c1)OCC`, the Activity in data set [2] worked out at 59.6%. In data set [3], the viability at 24 h, 20 µM was 118%.

As for `CCOP(=O)(CC(=O)Nc1cccc(O[Si](C)(C)C(C)(C)C)c1)OCC`, in data set [2], the Activity is recorded as 61.87%. Also, the viability at 24 h, 20 µM in data set [3] is 85.7%.

On to `CCOP(=O)(CC(=O)Nc1cccc(O)c1)OCC`, for which the Activity in data set [2] is listed as 52.42%. Further, the viability at 24 h, 20 µM in data set [3] came out at 117%.

In the case of `CCOP(=O)(CCC(=O)N(Cc1ccccc1)c1cccc(Br)c1)OCC`, the Activity in data set [2] worked out at 35.19%. Also, the viability at 24 h, 20 µM in data set [3] was found to be 121%.

Turning to `CCOP(=O)(CCC(=O)Nc1cccc(OCc2ccccc2)c1)OCC`, the Activity in data set [2] is 51.13%. The viability at 24 h, 20 µM in data set [3] amounted to 105%.

Consider `CCOP(=O)(CCC(=O)N(Cc1ccccc1)c1ccccn1)OCC`, for which, in data set [2], the Activity is -5.33%. In addition, in data set [3], the viability at 24 h, 20 µM is 113%. The same compound gave an IC50 in data set [4] of 22.3 µM.

Take `CC(=O)N(O)CCCP(=O)(O)O`: the inhibition in data set [1] came to 73.3%.

Turning to `CCOP(=O)(CCC(=O)N(Cc1ccccc1)c1cccc(OCc2ccccc2)c1)OCC`, the Activity in data set [2] stood at 6.84%. Also, in data set [3], the viability at 24 h, 20 µM worked out at 108%. This compound showed an IC50 in data set [4] of 16.4 µM.

As to `CCOP(=O)(CCC(=O)Nc1cccc(O)c1)OCC`, the Activity in data set [2] is reported as 54.54%. The viability at 24 h, 20 µM in data set [3] was determined as 119%.

Turning to `CCOP(=O)(CCC(=O)N(Cc1ccccc1)c1cccc(O)c1)OCC`, the Activity in data set [2] is listed as -8.05%. Besides, the viability at 24 h, 20 µM in data set [3] turned out to be 120%. In addition, the IC50 in data set [4] fell in the range of 15.8 to 15.9 µM.

On to `C#CCNC(=O)CP(=O)(OCC)OCC`, for which the Activity in data set [2] is recorded as 47.96%. Besides, the viability at 24 h, 20 µM in data set [3] came out at 104%.

For `CCOP(=O)(CC(=O)Nc1ccccn1)OCC`, the Activity in data set [2] was -19.39%. Besides, in data set [3], the viability at 24 h, 20 µM is 131%. In data set [4], this compound returned an IC50 of 23.1 µM.
